Legend:
SK-MEL-28 [1] = assay: Cell number quantitation with violet crystal; format: cell-based, human
Experimental: Cells: The study was carried out using a cell line derived from human melanoma, provided by ABAC (Asociación Banco Argentino de Células—Cell Bank of Argentina), with melanin synthesis capability (SK-MEL-28, ATCC origin). […] Study of in vitro compounds: […] After 24 hours have lapsed, the medium was replaced with 990 μl of fresh medium. 10 μl of sterile vehicle (50% propylene glycol, 30% ethanol and 20% distilled water) containing different concentrations of the compounds to be evaluated were added to this fresh medium. […] On the fourth day, the cells were not treated, and the remaining adherent cells were assayed on the fifth day according to the methods described below. The cells were thus continuously exposed to the compounds under study for the 5 days the culture lasted. All the concentrations of the compounds were studied in triplicate, comparing the mean of the 3 wells treated with the compounds with those treated with the vehicle alone. Cell number quantitation with violet crystal: A stain with a violet crystal aqueous solution was used for the purpose of determining the number of cells adhering to the plastic surviving in vitro treatment by means of indirect methods. […] The dishes were stained for 5 minutes at room temperature on a rotary platform, with gentle stirring. Then the excess colorant was decanted by turning the dish over and the entire dish was submerged 4 times in distilled water in a suitable container. After rinsing, the dishes were turned over and allowed to drip on absorbent paper until the excess water was completely removed. […] The plates were finally placed on a rotary agitator for 30 minutes at room temperature. […] In order to determine the fraction of cells surviving treatment at a specific concentration of the experimental agent, the OD590 of the treated wells (average of three measurements) was divided by the OD590 of the wells used with a control vehicle (average of three measurements).

[2] = Arzneim. Forsch/drug res. 35 (II), 11, pp. 1704, 1985; cited from earlier work
SK-MEL-28 [3] = assay: Dopaquinone content determination (OD475) in SK-MEL cells; format: cell-based, human
Experimental: In vitro determinations were performed following the method devised by Dooley et al. (Skin Pharmacol. 1994; 7:188-200) in order to evaluate the capacity of idebenone to inhibit melanogenesis, according to the process described below:
Cells: The study was carried out using a cell line derived from human melanoma, provided by ABAC (Asociación Banco Argentino de Células—Cell Bank of Argentina), with melanin synthesis capability (SK-MEL-28, ATCC origin). The cells were grown in plastic culture bottles or in 24-well plastic dishes in a modified Eagle medium (DMEM) supplemented with 10% fetal bovine serum (FBS) and were maintained at 37° C. in a 5% CO2 atmosphere.
Study of in vitro compounds: SK-MEL cells detached with trypsin were seeded on plastic 24-well dishes (density of 1×10^5 cells per well) and incubated for 24 hours in modified Eagle medium (DMEM) supplemented with 10% fetal bovine serum (FBS) prior to treating with the compound to be evaluated. After 24 hours have lapsed, the medium was replaced with 990 μl of fresh medium. 10 μl of sterile vehicle (50% propylene glycol, 30% ethanol and 20% distilled water) containing different concentrations of the compounds to be evaluated were added to this fresh medium.
Decimal dilutions of each compound in the sterile vehicle were prepared in order to obtain final concentrations of the compound to be studied ranging between 1.000 and 0.01 μg/ml. […]
[…] […] All the concentrations of the compounds were studied in triplicate, comparing the mean of the 3 wells treated with the compounds with those treated with the vehicle alone.
Melanin content determination: The SK-MEL cell melanin content was determined after stirring the culture medium and washing the cells with PBS. The cells were then lysated by means of adding 1 ml of 1N NaOH to each well and repeated manual pipetting. The raw cell extract was analyzed using a spectrophotometer at 400 and 475 nm to determine the melanin and dopaquinone content, respectively. The results were expressed as a percentage of the cell cultures treated with the vehicle.

SK-MEL-28 [4] = assay: Cytopathic effects on cell cultures, inverted microscope; format: cell-based, human
Experimental: An experiment similar to the one described in the previous example was designed for the purpose of establishing whether idebenone inhibits melanogenesis in cells in culture, but in this case the cells were treated for only 1 day, whereas the results were evaluated on the third day.
An experiment similar to the one described in the previous example was designed for the purpose of establishing whether idebenone inhibits melanogenesis in cells in culture, but in this case the cells were treated for 2 days and the results were evaluated on the fourth day.
An experiment similar to the one described in the previous example was designed for the purpose of establishing whether idebenone inhibits melanogenesis in cells in culture, but in this case the cells were treated for 5 days and the results were evaluated on the fifth day.

[5] = Example 9 (similar to Example 6), dilution −2
[6] = Example 9 (similar to Example 6), dilution −3
[7] = Example 9 (similar to Example 6), dilution −4
[8] = Example 9 (similar to Example 6), dilution −5
[9] = Example 9 (similar to Example 6), dilution −6
[10] = Example 9 (similar to Example 6), dilution −7
[11] = Example 9 (similar to Example 6), dilution −8
[12] = dilution −1, treated daily 3 days, assayed day 5
[13] = dilution −2, treated 1 day, evaluated third day
[14] = dilution −2, treated daily 3 days, assayed day 5
[15] = dilution −3, treated 1 day, evaluated third day
[16] = dilution −3, treated daily 3 days, assayed day 5
[17] = dilution −4, treated 1 day, evaluated third day
[18] = dilution −4, treated 2 days, evaluated fourth day
[19] = dilution −4, treated daily 3 days, assayed day 5
[20] = dilution −4, treated for 5 days (heading: 3 days), evaluated fifth day
[21] = dilution −5, treated 1 day, evaluated third day
[22] = dilution −5, treated 2 days, evaluated fourth day
[23] = dilution −5, treated daily 3 days, assayed day 5
[24] = dilution −5, treated for 5 days (heading: 3 days), evaluated fifth day
[25] = dilution −6, treated 1 day, evaluated third day
[26] = dilution −6, treated 2 days, evaluated fourth day
[27] = dilution −6, treated for 5 days (heading: 3 days), evaluated fifth day

For COC1=C(OC)C(=O)C(CCCCCCCCCCO)=C(C)C1=O [idebenone, 6-(10-hydroxydecyl)-2,3-dimethoxy-5-methyl-1,4-benzoquinone], the Toxicity for cells (SK-MEL-28 [1]; SK-MEL-28, high concentrations) was “may be toxic for cells”, the “Percentage of viable cells” value (SK-MEL-28 [1]; dilution −1, percentage of control vehicle) was 52% and the “Percentage of viable cells” value (SK-MEL-28 [1]; dilution −2, percentage of control vehicle) was 82%. The “Percentage of viable cells” value (SK-MEL-28 [1]; dilution −3, percentage of control vehicle) was 98%, the “Percentage of viable cells” value (SK-MEL-28 [1]; dilution −4, percentage of control vehicle) was 100% and the “Percentage of viable cells” value (SK-MEL-28 [1]; dilution −5, percentage of control vehicle) was 100%. The Toxic effects reported [2] was “no significant toxic effects have been reported”, the “OD475 (dopaquinone)” value (SK-MEL-28 [3]; [5]) was 0.0024 and the “OD475 Percentage (dopaquinone)” value (SK-MEL-28 [3]; [5]) was 14.45%. The “OD475 (dopaquinone)” value (SK-MEL-28 [3]; [6]) was 0.0038, the “OD475 Percentage (dopaquinone)” value (SK-MEL-28 [3]; [6]) was 22.89% and the “OD475 (dopaquinone)” value (SK-MEL-28 [3]; [7]) was 0.0133. The “OD475 Percentage (dopaquinone)” value (SK-MEL-28 [3]; [7]) was 80.12%, the “OD475 (dopaquinone)” value (SK-MEL-28 [3]; [8]) was 0.0139 and the “OD475 Percentage (dopaquinone)” value (SK-MEL-28 [3]; [8]) was 83.73%. The “OD475 (dopaquinone)” value (SK-MEL-28 [3]; [9]) was 0.0116, the “OD475 Percentage (dopaquinone)” value (SK-MEL-28 [3]; [9]) was 69.87% and the “OD475 (dopaquinone)” value (SK-MEL-28 [3]; [10]) was 0.0139. For the same molecule, the “OD475 Percentage (dopaquinone)” value (SK-MEL-28 [3]; [10]) was 83.73%, the “OD475 (dopaquinone)” value (SK-MEL-28 [3]; [11]) was 0.0133 and the “OD475 Percentage (dopaquinone)” value (SK-MEL-28 [3]; [11]) was 80.12%. The “OD475 (dopaquinone)” value (SK-MEL-28 [3]; [12]) was 0.0011, the “OD475 expressed as percentage of control (dopaquinone)” value (“OD475 expressed as percentage” below) (SK-MEL-28 [3]; [12]) was 9% and the “OD475 (dopaquinone)” value (SK-MEL-28 [3]; [13]) was 0.0030. For the same molecule, the “OD475 Percentage (dopaquinone)” value (SK-MEL-28 [3]; [13]) was 18.75%, the “OD475 (dopaquinone)” value (SK-MEL-28 [3]; [14]) was 0.0016 and the “OD475 expressed as percentage” value (SK-MEL-28 [3]; [14]) was 14%. For the same molecule, the “OD475 (dopaquinone)” value (SK-MEL-28 [3]; [15]) was 0.0050, the “OD475 Percentage (dopaquinone)” value (SK-MEL-28 [3]; [15]) was 31.25% and the “OD475 (dopaquinone)” value (SK-MEL-28 [3]; [16]) was 0.0043. For the same molecule, the “OD475 expressed as percentage” value (SK-MEL-28 [3]; [16]) was 37%, the “OD475 (dopaquinone)” value (SK-MEL-28 [3]; [17]) was 0.0123 and the “OD475 Percentage (dopaquinone)” value (SK-MEL-28 [3]; [17]) was 76.87%. The “OD475 (dopaquinone)” value (SK-MEL-28 [3]; [18]) was 0.0400, the “OD475 Percentage (dopaquinone)” value (SK-MEL-28 [3]; [18]) was 103.62% and the “OD475 (dopaquinone)” value (SK-MEL-28 [3]; [19]) was 0.0053. For the same molecule, the “OD475 expressed as percentage” value (SK-MEL-28 [3]; [19]) was 46%, the “OD475 (dopaquinone)” value (SK-MEL-28 [3]; [20]) was 0.0513 and the “OD475 Percentage (dopaquinone)” value (SK-MEL-28 [3]; [20]) was 80.66%. The “OD475 (dopaquinone)” value (SK-MEL-28 [3]; [21]) was 0.0196, the “OD475 Percentage (dopaquinone)” value (SK-MEL-28 [3]; [21]) was 122.5% and the “OD475 (dopaquinone)” value (SK-MEL-28 [3]; [22]) was 0.0406. The “OD475 Percentage (dopaquinone)” value (SK-MEL-28 [3]; [22]) was 105.18%, the “OD475 (dopaquinone)” value (SK-MEL-28 [3]; [23]) was 0.0040 and the “OD475 expressed as percentage” value (SK-MEL-28 [3]; [23]) was 35%. For the same molecule, the “OD475 (dopaquinone)” value (SK-MEL-28 [3]; [24]) was 0.0612, the “OD475 Percentage (dopaquinone)” value (SK-MEL-28 [3]; [24]) was 96.22% and the “OD475 (dopaquinone)” value (SK-MEL-28 [3]; [25]) was 0.0200. For the same molecule, the “OD475 Percentage (dopaquinone)” value (SK-MEL-28 [3]; [25]) was 125.0%, the “OD475 (dopaquinone)” value (SK-MEL-28 [3]; [26]) was 0.0273 and the “OD475 Percentage (dopaquinone)” value (SK-MEL-28 [3]; [26]) was 70.72%. The “OD475 (dopaquinone)” value (SK-MEL-28 [3]; [27]) was 0.0643, the “OD475 Percentage (dopaquinone)” value (SK-MEL-28 [3]; [27]) was 101.10% and the Cytopathic effects (SK-MEL-28 [4]; remaining dilutions (−2 to −6), treated 1 day) was “no cytopathic effect whatsoever”. For the same molecule, the Cytopathic effects (SK-MEL-28 [4]; −1 dilution, treated 1 day) was “cytopathic effects”, the Cytopathic effects (SK-MEL-28 [4]; −4, −5 and −6 dilutions, Example 8) was “No cytopathic effect was observed” and the Cytopathic effects (SK-MEL-28 [4]; −4, −5 and −6 dilutions, treated 2 days) was “No cytopathic effect was observed”.

— patent US20090060851A1, “USE OF IDEBENONE FOR THE PREPARATION OF A TOPICALLY-APPLIED DEPIGMENTATION COMPOSITION AND CORRESPONDING COMPOSITION” (priority 2005, published 2009)
